Measurements from patent CN116559458A, “基于protac蛋白靶向降解技术的活性天然产物靶点鉴定方法及protac化合物” (Shenyang Pharmaceutical University, priority 2022, dated 2023).

How the values were obtained:
[1] = system: LPS-stimulated mouse macrophage RAW264.7 cells (小鼠巨噬细胞RAW264.7细胞); conditions: LPS-stimulated RAW264.7; earlier study of the applicant's group; read-out: IC50 (inhibition of NO production); cited from earlier work
[2] = system: LPS-stimulated mouse macrophage RAW264.7 cells, NO production (小鼠巨噬细胞RAW264.7细胞, 一氧化氮(NO)生成); experiment: Griess assay of NO production in LPS-stimulated RAW264.7 cells; assay type: cell-based
MAFF protein (MAFF蛋白) [3] = target: MAFF protein (MAFF蛋白) (Homo sapiens, UniProt Q9ULX9); experiment: Microscale thermophoresis (MST); assay type: binding
MAFF protein (MAFF蛋白) [4] = target: T1, MAFF protein (MAFF蛋白) (Mus musculus, UniProt O54791); experiment: CETSA in RAW264.7 cells; assay type: cell-based; conditions: 40 μM, 4 h; 64-72 ℃
T1 construct: endogenous in cells; host or cells: RAW264.7

MAFF = target: T2, MAFF (Mus musculus, UniProt O54791); experiment: DARTS in RAW264.7 lysate; assay type: binding; conditions: 10, 20 and 40 μM; Pronase 1:1000, 37 ℃ 15 min
T2 construct: endogenous in cells; host or cells: RAW264.7
T2 sequence (O54791 whole entry): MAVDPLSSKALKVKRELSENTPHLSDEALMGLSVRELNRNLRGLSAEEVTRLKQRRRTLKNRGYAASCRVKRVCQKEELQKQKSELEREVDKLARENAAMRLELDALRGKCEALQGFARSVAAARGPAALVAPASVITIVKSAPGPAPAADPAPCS

T1 sequence (O54791 whole entry): as above
MAFF protein (MAFF蛋白) (Homo sapiens, UniProt Q9ULX9), sequence (Q9ULX9 whole entry, species assumed): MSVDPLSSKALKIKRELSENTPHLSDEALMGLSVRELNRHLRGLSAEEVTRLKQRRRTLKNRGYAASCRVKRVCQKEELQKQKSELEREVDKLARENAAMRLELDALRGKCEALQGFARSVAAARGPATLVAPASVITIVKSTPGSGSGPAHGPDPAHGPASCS

Compound | IC50 [1] [µM] | IC50 ([2]; Mus musculus, RAW264.7, read-out: IC50 (inhibition of NO production)) [µM] | inhibition of LPS-stimulated NO production (in words) ([2]; RAW264.7, compound 3 h, then LPS 1 μg/mL 24 h) | Kd (MAFF protein (MAFF蛋白) [3]) [µM] | thermal stability of MAFF protein (MAFF protein (MAFF蛋白) [4]) | degradation of MAFF by Pronase (MAFF)
C=C1CC[C@H]2[C@@H](/C=C(\C)C(=O)[C@@]3(OC(C)=O)C[C@H](C)[C@H](OC(=O)/C=C/c4ccccc4)[C@@H]3[C@H]1O)C2(C)C [2S,3S,4S,5R,9S,11R,15R)-15-acetoxy-3-cinnamoyloxy-5-hydroxy-14-oxolathyra-6(17),12E-diene] | 3 ± 1.1 |  |  |  |  | 
C=C1CC[C@H]2[C@@H](/C=C(\C)C(=O)[C@@]3(O)C[C@H](C)[C@H](O)[C@@H]3[C@H]1O)C2(C)C [Lathyrol] |  | 11.1 ± 1.14 | 良好的抑制作用 | 20.9 ± 2.34 | 提高了MAFF蛋白的热稳定性 | 降解程度显著降低
